The text below walks through data of patent US8541455B2, “Derivatives of 2-pyridin-2-yl-pyrazol-3(2H)-one, preparation and therapeutic use thereof as HIF activators” (Sanofi, priority 2008, dated 2013).

The subject of data set [1] is HIF1-alpha. Briefly: Measurement of the stabilization of HIF1-alpha in HEKEA cells (beta-galactosidase complementation, luminescence). The following applies: HEKEA_HIF1-alphaPLBL cells, 6 hours incubation under normoxia; concentration that produces 50% of the maximum response of this same compound. It is filed as cell-based, human. The text has this: Furthermore, a subject of the invention is also a uniform test process for the direct measurement by beta-galactosidase complementation of the amount of HIF1-alpha protein in the nucleus of cells, preferably HEK cells, after treating the said cells with one or more test compounds, which consists in: • (a) inoculating, preferably in 384-well plates, the said cells in a suitable culture medium, preferably 1% foetal calf serum (abbreviated as FCS); • (b) adding the test compound(s) at a suitable concentration in a suitable solvent to the cells previously inoculated in the said culture medium; preferably the test compounds are diluted in 0.1% FCS; • (c) incubating the said cells thus prepared in an indicator at about 37° C., advantageously for about 6 hours; • (d) lysing the cells with a lysis buffer containing a chemiluminescent substrate for beta-galactosidase; • (e) incubating in the absence of light, before reading and measuring the luminescence, which is a function of the beta-galactosidase activity.
Many tests exist describing the indirect measurement of the activity of HIF via reporter gene systems (HRE-luciferase) or via the measurement of HIF-induced proteins (for example VEGF or EPO). Furthermore, the only tests that allow direct measurement of the amount of HIF1-alpha protein in cells are tests using antibodies, for instance Western blotting comprising phases of cell extraction (total lysates or nuclear extracts) that are consuming in terms of cells and time, thus limiting the compound screening capacity. The object was thus to develop a sensitive screening test, adaptable to 384-well plates, for directly measuring the amount of HIF1-alpha protein in the nucleus of cells. This test was established in HEK cells ([…]).
The test is a cell test based on the principle of enzyme complementation, the enzyme used herein being beta-galactosidase. HEKEA cells are HEK cells stably expressing, and restricted in their nucleus, mutant beta-galactosidase (omega fragment, also known as EA) (line sold by DiscoverX). This construct makes it possible to obtain beta-galactosidase activity only when the protein comprising the Prolabel complementation fragment has migrated into the nucleus.
The protein of interest comprising the Prolabel fragment is in this case an HIF1-alpha or HIF1-alpha mutated at the two prolines 402 and 564 replaced with alanines, is C-terminal fused via molecular biology (DiscoverX vector sold by Clontech) with the small complementation peptide fragment (Prolabel or ED, about 4 kDa). The vector coding for the chimeric protein HIF1-alpha_Prolabel is then transfected into HEKEA cells to obtain stable clones (HEKEA_HIF1-alphaPLBL).
The amount of C-terminal Prolabel-“labelled” HIF1-alpha protein obtained after treating the cells to hypoxia or compounds that are potentially HIF activators is measured by adding to the cells a lysis buffer containing a chemiluminescent substrate for beta-galactosidase.
The measurement of the beta-galactosidase activity will be proportional to the amount of Prolabel and thus of HIF1-alpha that has migrated into the nucleus of the cells.
• 1.3.1 Experiment Plan • 1) Inoculation of the cells on D0 • 2) Adherence for 24 hours under normoxia • 3) Preparation and addition of the products (Biomek 2000 and FX) on D+1 • 4) Incubation under normoxia for 6 hours • 5) Reading of the plates (by luminescence)
The cells are inoculated with Multidrop in white, opaque-bottomed 384-well plates (Greiner ref 3704), in 30 μl of culture medium (1% FCS) at 10 000 cells/well (cell plate). • 1.3.3 Treatment • Preparation of the Dilution Plate (DL Plate)
The test products are prepared at 3×10^−2 M in 100% DMSO and then diluted to 3×10^−4 M in medium containing 0.1% FCS (10 μl in 990 μl of MEM). They are then deposited by hand into column 12 of a round-bottomed 96-well plate (200 μl of each compound) known as the dilution plate (dl). […]

Data set [2] concerns EPO secretion by Hep3B cells. Briefly: Measurement of the secretion of EPO by Hep3B hepatocytes (ELISA on supernatant). The note with it: Homo sapiens, 18 hours incubation under normoxia, EPO in supernatant, 50% of the maximum response of this same compound. It is filed as cell-based. The text has this:
(§1) 2. Measurement of the Secretion of VEGF and EPO by Hep3B Hepatocytes 2.1. Object
(§2) HIF is a transcription factor involved in the adaptation of cells to hypoxia. Since the genes activated by HIF are involved in the adaptive response of cells to hypoxia and of tissues to ischaemia, the object is to identify and characterize compounds that stabilize HIF1-alpha in cells in order to amplify or mimic its beneficial effect. HIF1-alpha was identified following the analysis of the EPO gene promoter, which makes this protein one of the first markers of HIF1-alpha activation. Moreover, VEGF is also identified in the literature as one of the main markers of HIF activation. It is for this reason that measurement of these two proteins was selected for characterizing compounds that are HIF activators in Hep3B cells.
(§3) The object was thus to develop a sensitive screening test, adaptable to 96-well plates, for directly measuring the amount of VEGF and EPO in the supernatant of the Hep3B cells (cells derived from a human hepatocarcinoma) in response to the potential HIF activators.
(§4) The test is an ELISA test for measuring VEGF and EPO in the supernatant of Hep3B cells treated under hypoxia or with deferoxamine as controls or with the potential HIF activators. The test was adapted to a 96-well plate, allowing greater compound screening capacity.
(§5) • 2.3.1 Experiment Plan • 1) Inoculation of the cells on D0 • 2) Adherence for 6 hours under normoxia • 3) Preparation and addition of the products (Biomek 2000 and FX) • 4) Incubation under normoxia for 18 hours • 5) EPO and VEGF assay in the supernatant on D+1 • 2.3.2 Inoculation of the Cells
(§6) The cells are subcultured into 100 μl of culture medium (10% FCS) in black, opaque-bottomed 96-well plates (reference Costar 3916) at 30 000 cells/well, with Multidrop. • 2.3.3 Treatment of the Cells
(§7) The test products are prepared at 10^−2 M in 100% DMSO and then diluted to […] in medium containing 0.1% FCS (6 μl in 194 μl of MEM). 200 μl of each compound are deposited in column 12 of a 96-well plate. Dilution ranges from […] to 3×10^−8M are prepared with Biomek 2000 (programme: range of 9 points in series). 100 μl of MEM 0.1% FCS and Deferoxamine 5×10^−3M are added as controls to column 3 and, respectively, to wells A,B,C,D and wells E,F,G,H • DL Plate Distribution in Cell Plates
(§8) The medium of the cells inoculated the day before into 96-well plates is changed for 90 μl of medium containing 0.1% FCS and 10 μl are distributed with FX 96 from the 96-well DL plates to the cell plates.
(§9) The cell plates thus treated are placed for 18 hours in an incubator at 37° C. (ambient O2, 6% CO2).
(§10) The supernatants (80 μl) of the Hep3B cells in the 96-well plates treated with the potential HIF activators are recovered with a multichannel pipette for simultaneous assay of the VEGF and the EPO by ELISA according to the supplier's instructions (Kit EPO Mesoscale (ref K15122B-2)).
(§11) The activating activity of a compound with respect to HIF is given by the concentration that produces 50% of the maximum response of this same compound in Table IV below.
For orientation: ELISA stands for enzyme-linked immunosorbent assay.

Data set [3] relates to VEGF secretion by Hep3B cells. Nature of the data set: Measurement of the secretion of VEGF by Hep3B hepatocytes (ELISA on supernatant). The format is cell-based. The note with it: Homo sapiens, 18 hours incubation under normoxia, VEGF in supernatant, 50% of the maximum response of this same compound.
Description: as §1, §2, §3, §4, §5, §6, §7, §8, §9, §10, §11

Take `CCCc1[nH]n(-c2ccc(S(=O)(=O)N(CC)c3ccccc3)cn2)c(=O)c1Cc1ccccc1` [Compound 68, 6-(4-benzyl-5-oxo-3-propyl-2,5-dihydro-1H-pyrazol-1-yl)-N-ethyl-N-phenylpyridine-3-sulfonamide]: the melting point (as a rule, the temperature, or range, at which the solid turns liquid) was 180 °C. For the same molecule, the EC50 (commonly the concentration giving half of the maximal effect) in data set [1] was found to be 1.5 µM. This molecule also displayed an EC50 in data set [2] of 0.4 µM. For the same molecule, the midpoint of the response in data set [3], the EC50, lay at 0.5 µM.

`CCN(c1ccccc1)S(=O)(=O)c1ccc(-n2[nH]c(C)c(C(C)(C)c3ccccc3)c2=O)nc1` [Compound 77, N-ethyl-6-[3-methyl-4-(1-methyl-1-phenylethyl)-5-oxo-2,5-dihydro-1H-pyrazol-1-yl]-N-phenylpyridine-3-sulfonamide]: the melting point is 122 °C. Besides, in data set [1], the midpoint of the response, the EC50, lay at 4.8 µM. The molecule further came in with an EC50 in data set [2] of 1.4 µM. In data set [3], this molecule came in with an EC50 of 1.3 µM.

`CCN(c1ccccc1)S(=O)(=O)c1ccc(-n2[nH]c(C)c(C3(c4ccccc4)CC3)c2=O)nc1` [Compound 80, N-ethyl-6-[3-methyl-5-oxo-4-(1-phenylcyclopropyl)-2,5-dihydro-1H-pyrazol-1-yl]-N-phenylpyridine-3-sulfonamide]: the melting point turned out to be 146 °C. Besides, the 50% effective concentration (EC50) in data set [1] came to 3.3 µM. For the same molecule, the concentration giving a half-maximal response (EC50) in data set [2] was determined as 0.4 µM. This molecule also gave a half-maximal effective concentration (EC50) in data set [3] of 0.9 µM.

`CCN(c1ccccc1)S(=O)(=O)c1ccc(-n2[nH]c(C)c(Cc3ncccc3OC)c2=O)nc1` [Compound 81] gave a melting point of 130 °C. Moreover, in data set [1], a half-maximal response (EC50) required 7.5 µM. Also, the EC50 in data set [2] came to 1.2 µM. The molecule also gave an EC50 in data set [3] of 1.9 µM.

Molecule `CCN(c1ccccc1)S(=O)(=O)c1ccc(-n2[nH]c(COC)c(Cc3ccccc3)c2=O)nc1` [Compound 82] yielded a melting point of 158 °C. The molecule also came in with a 50% effective concentration (EC50) in data set [1] of 1.5 µM. Besides, the EC50 in data set [2] was 1 µM. The same molecule registered an EC50 in data set [3] of 1.2 µM.

In turn, `CCN(c1ccccc1)S(=O)(=O)c1ccc(-n2[nH]c(C(F)(F)F)c(Cc3ccccc3)c2=O)nc1` [Compound 83, 6-(4-benzyl-5-oxo-3-trifluoromethyl-2,5-dihydro-1H-pyrazol-1-yl)-N-ethyl-N-phenylpyridine-3-sulfonamide] registered a melting point of 186 °C. Besides, in data set [1], the EC50 came out at 3.3 µM. This molecule also came in with an EC50 in data set [2] of 1.4 µM. Also, the concentration giving a half-maximal response (EC50) in data set [3] came to 1.3 µM.

`CCN(c1ccccc1)S(=O)(=O)c1ccc(-n2[nH]c(C)c(CCc3ccccn3)c2=O)nc1` [Compound 85] yielded a melting point of 188 °C. In data set [1], this molecule returned an EC50 of 1.8 µM. Further, it took 2.5 µM to reach a half-maximal effect in data set [2] (EC50). In data set [3], this molecule displayed an EC50 of 2.5 µM.

As to `CCN(c1ccccc1)S(=O)(=O)c1ccc(-n2[nH]c(CC(C)C)c(Cc3ccccc3)c2=O)nc1` [Compound 88], the melting point is 138 °C. This molecule yielded an EC50 in data set [1] of 0.88 µM. A half-maximal response in data set [2] (EC50) required 0.3 µM. In data set [3], this molecule had an EC50 of 0.4 µM.

The molecule `CCN(c1ccccc1)S(=O)(=O)c1ccc(-n2[nH]c(C)c(CCCc3ccccc3)c2=O)nc1` [Compound 92] registered a melting point of 158 °C. Besides, the EC50 in data set [1] is 0.86 µM. The molecule further gave an EC50 in data set [2] of 0.5 µM. Besides, the EC50 in data set [3] turned out to be 0.5 µM.
